# Like-named read-outs stand apart in the source and are kept apart here.
# Legend:
# [1] = test system: HCT116 MTAP-deleted cell lines; assay: Cell viability assay (CellTiter-Glo, 7 days), HCT116 MTAP-deleted; type: cell-based; details: for Selectivity: HCT116 WT CC50 versus HCT116 MTAP^del CC50; for plasma-adjusted CC50 (paCC50): paCC50 = CC50-HCT116-MTAP^del * (% free CCM/% free human plasma); for CC50: Homo sapiens, HCT116 MTAP-deleted
# Outline: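 Luminescent ATP readout (CellTiter-Glo) after 7 days of continuous compound exposure gives the CC50 value. Cells were plated onto pre-dispensed DMSO dilution series of the PRMT5 inhibitors and kept at 37 °C in 5% CO2.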
# [2] = Cell viability assay (CellTiter-Glo, 7 days), HCT116 WT; type: cell-based; details: human, HCT116 WT cells, 7 days of treatment, CTG
# Experimental: Control compounds were analyzed in parallel each time for quality control. In Brief, on Day -1, a serial dilution of stock compounds in DMSO was performed using BioMek liquid handlers and dispensed using Echo acoustic dispenser into 384 well plates. Both tool compounds and sample compounds were spotted in the same plate for a dose response of PRMT5 inhibitors. Compound plates were stored as frozen until the cells were ready for seeding. […] After equilibrating the plate in room temperature, the cells were incubated for 7 days inside the sealed incubator set at 37° C. with 90% humidity and 5% CO2. On Day 7, the viability of cells was measured using a CTG assay kit (CellTitre-Glo;Promega cat no. G7573). Shortly, 40 μl per well of luminescent cell viability assay reagent were dispensed using EL460 liquid dispenser 5 μl cassette. CTG luminescence signal was measured using an EnVision plate reader (PerkinElmer) in accordance with manufacturer's instruction. […] Selectivity with * is artificially high due to limited solubility of the compound hampering accurate measurement of WT CC50.
# [3] = PBS solubility (kinetic solubility from DMSO stocks); type: physicochemical; details: 22 °C, aqueous buffer, kinetic from dmso stock; 1x PBS pH 7.4, 1.0% DMSO, 24-hour incubation at ambient temperature
# Experimental: Buffer Preparation: 1×PBS, 7.4: Phosphate Buffered Saline solution 10×, PBS (Fisher Bioreagent, part number BP399-500) 50 mL was added to approximately 450 mL HPLC grade H2O. The volume of the solution was then adjusted to 500 mL for a total dilution factor of 1:10 and a final PBS concentration of 1×. The pH of the final solution was measured and found to be 7.4.
# The final DMSO Concentration is 1.0% and maximum theoretical compound concentration is 100 μM (assuming stock concentration of 10 mM). The filter plate was sealed. Following 24-hour incubation at ambient temperature (20.8-24.0° C.), the samples were vacuum filtered, and the filtrates were collected in a 96 well polypropylene plate for analysis. The collection plate was sealed for analysis. Filtrates were injected into the nitrogen detector for quantification on Analiza's Automated Discovery Workstation. The results are reported here in both μM and μg/mL.
# Calculation of Results: The equimolar nitrogen response of the detector is calibrated using standards which span the dynamic range of the instrument from 0.08 to 4500 μg/ml nitrogen. The filtrates were quantified with respect to this calibration curve. The calculated solubility values are corrected for background nitrogen present in the DMSO, and the media used to prepare the samples. All reported values for compounds containing adjacent nitrogen atoms in a ring structure should be increased by ˜25%. […] The solubility results presented assume that the samples were free of nitrogen containing impurities and are stable under the assay conditions.
# [4] = test system: Symmetric Di-methyl Arginine (SDMA) signal (PRMT5 inhibition) in HCT116 MTAP-deleted cells; assay: Symmetric di-methyl arginine image-based high content screen assay (SDMA assay), HCT116 MTAP-deleted; type: cell-based; details: for EC50 selectivity: HCT116 WT vs HCT116 MTAP-deleted; for EC50: Homo sapiens, HCT-116, HCT116 MTAP-deleted, class symbols
# Outline: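 HCT116 WT and MTAP-deleted cells (800/well, RPMI 1640 + 10% FBS) treated with compound 3 days at 37 °C; formalin-fixed, stained with anti-SDMA antibody/Alexa 488 plus DAPI. Mean SDMA intensity per DAPI-defined cell imaged; EC50 from 4-parameter logistic fit.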
# [5] = HCT-116, 168 h, 7 days of treatment, CTG, read-out: CC50-HCT116-MTAP^del
# [6] = HCT-116, cell viability assay, class symbols, read-out: CC50
SMILES,solubility at 24 h [3],EC50 selectivity [4],EC50 [4],Selectivity [1],plasma-adjusted CC50 (paCC50) ([1]; HCT-116),"CC50 [1, 5]",CC50 at 7 days [2],"CC50 [1, 6]"
"Nc1nc2cnc(C(=O)N3CC[C@H]4C[C@@H]3c3c(F)cc(OC(F)(F)F)cc3O4)cc2n2cncc12 (single isomer, unassigned) [Ff-692]",18.6 µM,,,69,139 nM,14 nM,969 nM,
"Cc1cc2nc(N)c3cncn3c2cc1C(=O)N1CCC[C@@H]2Oc3cc(C(F)(F)F)ccc3[C@@H]21 [Ff-368, (4-amino-7-methylimidazo[1,5-a]quinoxalin-8-yl)((4aS,9bS)-7-(trifluoromethyl)-3,4,4a,9b-tetrahydrobenzofuro[3,2-b]pyridin-1(2H)-yl)methanone]",,47,≤ 1 nM,59,,3 nM,178 nM,< 100 nM
"Cc1ncn2c1c(N)nc1cc(F)c(C(=O)N3CCCC[C@@H]3c3ccc(S(F)(F)(F)(F)F)cc3)cc12 [Ff-402, (R)-(4-amino-7-fluoro-3-methylimidazo[1,5-a]quinoxalin-8-yl)(2-(4-(pentafluoro-16-sulfaneyl)phenyl)piperidin-1-yl)methanone]",18.3 µM,,,84,40 nM,30 nM,2520 nM,< 100 nM
"Nc1nc2cc(F)c(C(=O)N3CCC[C@@H]4Oc5ccc(C(F)(F)F)cc5[C@@H]43)cc2n2cncc12 [Ff-620, (4-amino-7-fluoroimidazo[1,5-a]quinoxalin-8-yl)((4aS,9bS)-8-(trifluoromethyl)-3,4,4a,9b-tetrahydrobenzofuro[3,2-b]pyridin-1(2H)-yl)methanone]",1.2 µM,,,50,,31 nM,1550 nM,< 100 nM
"Cc1ncn2c1c(N)nc1cnc(C(=O)N3CC[C@H]4C[C@@H]3c3ccc(OC(F)(F)F)cc3O4)cc12 [Ff-632, (4-amino-3-methylimidazo[1,5-a]pyrido[3,4-e]pyrazin-8-yl)((2S,6R)-9-(trifluoromethoxy)-3,4-dihydro-2H-2,6-methanobenzo[b][1,5]oxazocin-5(6H)-yl)methanone]",,,,93,270 nM,18 nM,1680 nM,< 100 nM
"Cc1ncn2c1c(N)nc1cnc(C(=O)N3CC[C@H]4C[C@@H]3c3ccc(C(F)(F)F)c(F)c3O4)cc12 [Ff-633, (4-amino-3-methylimidazo[1,5-a]pyrido[3,4-e]pyrazin-8-yl)((2S,6R)-10-fluoro-9-(trifluoromethyl)-3,4-dihydro-2H-2,6-methanobenzo[b][1,5]oxazocin-5(6H)-yl)methanone]",,82,1 to 5 nM,104,,20 nM,2080 nM,< 100 nM
"Nc1nc2cnc(C(=O)N3C[C@@H](F)C[C@@H]4Oc5cc(OC(F)(F)F)ccc5[C@@H]43)cc2n2cncc12 [Fg-44, (4-aminoimidazo[1,5-a]pyrido[3,4-e]pyrazin-8-yl)((3S,4aS,9bS)-3-fluoro-7-(trifluoromethoxy)-3,4,4a,9b-tetrahydrobenzofuro[3,2-b]pyridin-1(2H)-yl)methanone]",,119,≤ 1 nM,,,,,< 100 nM
"Cc1ncn2c1c(N)nc1cnc(C(=O)N3C[C@@H](F)C[C@@H]4Oc5cc(OC(F)(F)F)ccc5[C@@H]43)cc12 [Fg-46, (4-amino-3-methylimidazo[1,5-a]pyrido[3,4-e]pyrazin-8-yl)((3S,4aS,9bS)-3-fluoro-7-(trifluoromethoxy)-3,4,4a,9b-tetrahydrobenzofuro[3,2-b]pyridin-1(2H)-yl)methanone]",,273,≤ 1 nM,,,,,< 100 nM

# Further lines, with some results ahead:
solubility at 24 h [3],EC50 selectivity [4],EC50 [4],SMILES,Selectivity [1],plasma-adjusted CC50 (paCC50) ([1]; HCT-116),"CC50 [1, 5]",CC50 at 7 days [2],"CC50 [1, 6]"
,94,≤ 1 nM,"CN(C(=O)c1cc2c(cc1Br)nc(N)c1cncn12)[C@@H]1COc2cc(C(F)(F)F)ccc21 [Fg-48, (S)-4-amino-7-bromo-N-methyl-N-(6-(trifluoromethyl)-2,3-dihydrobenzofuran-3-yl)imidazo[1,5-a]quinoxaline-8-carboxamide]",,,,,< 100 nM
,70,≤ 1 nM,"C#Cc1cc2nc(N)c3cncn3c2cc1C(=O)N(C)[C@@H]1COc2cc(C(F)(F)F)ccc21 [Fg-49, (S)-4-amino-7-ethynyl-N-methyl-N-(6-(trifluoromethyl)-2,3-dihydrobenzofuran-3-yl)imidazo[1,5-a]quinoxaline-8-carboxamide]",,,,,< 100 nM
,47,≤ 1 nM,"Nc1nc2cc(Br)c(C(=O)N3CCC[C@@H]4Oc5cc(C(F)(F)F)ccc5[C@@H]43)cc2n2cncc12 [Fg-50, (4-amino-7-bromoimidazo[1,5-a]quinoxalin-8-yl)((4aS,9bS)-7-(trifluoromethyl)-3,4,4a,9b-tetrahydrobenzofuro[3,2-b]pyridin-1(2H)-yl)methanone]",,,,,< 100 nM
,319,1 to 5 nM,"C=Cc1cc2nc(N)c3cncn3c2cc1C(=O)N(C)[C@@H]1COc2cc(C(F)(F)F)ccc21 [Fg-51, (S)-4-amino-N-methyl-N-(6-(trifluoromethyl)-2,3-dihydrobenzofuran-3-yl)-7-vinylimidazo[1,5-a]quinoxaline-8-carboxamide]",,,,,< 100 nM
,69,≤ 1 nM,"C[C@H]1C[C@@H]2Oc3cc(OC(F)(F)F)ccc3[C@@H]2N(C(=O)c2cc3c(cn2)nc(N)c2cncn23)C1 [Fg-54, (4-aminoimidazo[1,5-a]pyrido[3,4-e]pyrazin-8-yl)((3S,4aS,9bS)-3-methyl-7-(trifluoromethoxy)-3,4,4a,9b-tetrahydrobenzofuro[3,2-b]pyridin-1(2H)-yl)methanone]",,,,,< 100 nM
,208,≤ 1 nM,"[2H]C1([2H])CC[C@@H]2Oc3cc(OC(F)(F)F)ccc3[C@@H]2N1C(=O)c1cc2c(cn1)nc(N)c1cncn12 [Fg-59, (4-aminoimidazo[1,5-a]pyrido[3,4-e]pyrazin-8-yl)((4aS,9bS)-7-(trifluoromethoxy)-3,4,4a,9b-tetrahydrobenzofuro[3,2-b]pyridin-1(2H)-yl-2,2-d2)methanone]",,,,,< 100 nM
< 1 µM,,,"Nc1nc2cc(F)c(C(=O)N3CCC[C@@H]4Oc5cc(OC(F)(F)F)cc(F)c5[C@@H]43)cc2n2cncc12 [Fg-68, (4-amino-7-fluoroimidazo[1,5-a]quinoxalin-8-yl)((4aS,9bS)-9-fluoro-7-(trifluoromethoxy)-3,4,4a,9b-tetrahydrobenzofuro[3,2-b]pyridin-1(2H)-yl)methanone]",89,130 nM,8 nM,708 nM,

# Source: US12448388B2, “PRMT5 inhibitors and uses thereof” (Gilead Sciences, Inc., priority 2023, dated 2025)
